{"source": "paper PMC7316490", "about": "“Dihydrofolate Reductase Is a Valid Target for Antifungal Development in the Human Pathogen Candida albicans” (mSphere, 2020)", "key": {"[1]": {"system": "wild-type C. albicans strain (SC5314)", "assay": "Antifungal susceptibility testing (dose-response growth, OD600)", "format": "cell-based, Candida albicans", "details": "for C. albicans growth inhibition (in words): YNB medium, pH 5 and pH 7; for MIC: Candida albicans, SC5314, YNB medium buffered to either pH 5 or 7", "experimental": "A wild-type C. albicans strain (SC5314) was seeded at 1 × 10^4 cells/ml into YNB medium without folate or PABA with the indicated supplements and increasing concentrations of MTX. After 48 h of incubation at 30°C, growth was quantified as the OD600 value and expressed as a percentage of the value for the DMSO-treated control. The values presented here are the average of two replicates and are representative of two independent experiments.\nApproximately 1 × 10^4 cells/ml of a wild-type C. albicans strain was seeded into a 96-well plate with increasing concentrations of MTX in YNB pH 5, YNB pH 7, and RPMI pH 7 media. After 48 h, the OD600 was measured and expressed as a percentage of the value for the DMSO-treated control. The results presented here are the averages of two replicates and are representative of two independent experiments.\nStock solutions of MTX were prepared at 10 mM in dimethyl sulfoxide (DMSO) and diluted as needed in the same solvent. […] The final concentration of DMSO was 0.5% for all treatments. Plates were then incubated at 30°C before growth was quantified after 24 and 48 h by measuring the OD600 using a Cytation 5 plate reader (Bio-Tek Instruments, Inc.). MIC50 values were identified visually using the CLSI antifungal susceptibility assay and then confirmed by quantifying growth by the OD600 value. The growth of each strain at each drug concentration was then expressed relative to that of the DMSO-alone control. The susceptibility to MTX at the highest concentration at each pH was compared to that of the other pH values using a two-tailed Student's t test."}, "[2]": {"biological_target": "T1, Candida albicans dihydrofolate reductase (Candida albicans, UniProt P22906)", "T1 construct": "The optimized DFR1 ORF was then cloned into pET15b; 6xHis; host or cells: Escherichia coli", "T1 sequence (P22906 1-192)": "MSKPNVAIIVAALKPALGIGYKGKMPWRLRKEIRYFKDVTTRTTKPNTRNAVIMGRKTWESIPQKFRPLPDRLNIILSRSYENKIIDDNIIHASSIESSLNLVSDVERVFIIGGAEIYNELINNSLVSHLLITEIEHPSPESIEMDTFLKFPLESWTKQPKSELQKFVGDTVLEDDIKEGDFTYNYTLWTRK", "assay": "biochemical", "format": "biochemical", "details": "for inhibition of C. albicans DHFR (in words): dose-response experiments, purified enzyme", "text": "Finally, we tested a panel of additional antifolates to examine the relationship between their antifungal potencies and capacities to inhibit C. albicans DHFR. The enzyme was purified using a 6×His tag ([45], [46]), and activity was detected by measuring the conversion of NADPH to NADP^+ at an optical density at 340 nm (OD340) ([34]).\nThe C. albicans DFR1 open reading frame (ORF) sequence was retrieved from the Candida Genome Database ([68]) and was codon optimized for expression in Escherichia coli. The optimized DFR1 ORF was then cloned into pET15b ([69]) to allow propagation and expression of C. albicans Dfr1p in E. coli. Cultures of E. coli transformed with pET15b-CaDfr1p (Biomatik) were grown overnight in LB plus ampicillin. The culture was diluted 1:100 into fresh medium and incubated at 35°C for 6 h; then Dfr1p expression was induced with isopropyl-β-D-thiogalactopyranoside (IPTG) at a final concentration of 0.5 mM for 16 h. Cells were collected by centrifugation and resuspended in binding buffer (6 g/liter Tris base, pH 7.5, 8.8 g/liter NaCl, 1 mM dithiothreitol [DTT], 0.68 g/liter imidazole, 5% glycerol, 1× protease inhibitor). Resuspended cells were lysed with 1 mg/ml chicken white lysozyme (Sigma) for 60 min at 4°C. Then, Triton X-100 and NaCl were added to 0.1% and 0.5 M, respectively. The lysate was then centrifuged, and the supernatant was collected. The supernatant was added to nickel resin beads (Sigma) and incubated at 4°C for 30 min with rotation. The buffer was removed, and the beads were washed twice with binding buffer. Then the beads were suspended in elution buffer (6 g/liter Tris base, pH 7.5, 8.8 g/liter NaCl, 1 mM DTT, 34 g/liter imidazole, 5% glycerol) and incubated at 4°C for 30 min. The elution was removed and then run on SDS-PAGE gels (Sigma) to confirm the presence of CaDfr1p. SDS-PAGE gels were run according to the manufacturer’s protocol.\nThe enzymatic activity of C. albicans Dfr1p was determined using a dihydrofolate reductase assay (Sigma). The manufacturer’s protocol was adapted to the fungal enzyme by scaling down the volume to 100-μl reaction mixtures with 88 μl of buffer, 6 μl of a 1 mM NADPH stock, 5 μl of a 1 mM DHF stock, and 1 μl of 3-mg/ml purified enzyme. The loss of NADPH was quantified as the decrease in absorption at the OD340 over a 30-min time frame. The IC50 was calculated by converting the change in the OD340 value per minute into the amount of THF produced per minute and then compared to the level in an untreated control."}, "[3]": {"system": "disseminated Candida infections", "details": "cited from earlier work; for fraction of patients nonresponsive to treatment: patients with disseminated Candida infections"}, "PTET98-DFR1 strain [4]": {"system": "PTET98-DFR1 strain", "assay": "Mouse model of disseminated candidiasis", "format": "in vivo, BALB/c mice", "experimental": "Next, we determined if DFR1 expression is essential for C. albicans virulence in a mammalian host using a mouse model of disseminated candidiasis. Female BALB/c mice were split into two treatment groups: group 1 was treated with doxycycline in a gel food formulation from 72 h before infection and for the duration of the experiment; group 2 was mock treated using unsupplemented gel food. The mice were then infected with ∼5 × 10^5 yeast cells of the PTET98-DFR1 strain via the lateral tail vein, and their health was monitored for 12 days. […] All mice in the mock-treated group succumbed to the infection by day 7 (Fig. 5A), confirming the virulence of the PTET98-DFR1 strain under nonrepressing conditions. […] On day 12, surviving animals were euthanized, kidneys were extracted and homogenized, and levels of fungal colonization were determined as CFU counts. […] To determine if suppression of Dfr1p activity is sufficient to resolve an established infection, a second experiment was performed in which mice were infected with the PTET98-DFR1 strain, and doxycycline treatment was initiated 24-h postinfection. […] Furthermore, C. albicans is unable to scavenge sufficient sources of folate to survive within mammalian tissue, and de novo biosynthesis is required. Indeed, the antifungal efficacy achieved upon repressing Dfr1p expression appears to be similar to that attained upon suppression of Erg11p expression. Accordingly, DHFR and likely other FOL pathway enzymes can provide potentially efficacious targets for antifungal development.\nFIG 5 Dfr1p is essential for Candida albicans virulence in a mouse model of disseminated candidiasis. Groups of BALB/c mice (n = 6) were inoculated with ∼5 × 10^5 CFU of either the dfr1Δ/PTET98-DFR1 strain or the erg11Δ/PTETO-ERG11 strain via the lateral tail vein injections. The Erg11p strain was included to compare the antifungal efficacy of targeting Dfr1p with a previously validated target. The mice were monitored three times daily for 12 days, and those showing signs of distress were humanely euthanized. Mice were treated with 2 mg/g doxycycline (DOX) or mock treated with vehicle alone provided in a gel food formulation from 72 h prior to infection and throughout the duration of the experiment. […].\nAll animal experiments were done according to protocols approved by the University of Tennessee Institutional Animal Care and Use Committee. Groups of 6- to 8-week-old female BALB/c mice (Charles River Laboratories) were randomly assigned to one of three treatment groups 3 days before infection. Group 1 (minus doxycycline) was provided 20 g of DietGel (clear H2O) per day, per cage of 4 mice, while group 2 (plus doxycycline) was provided the same diet supplemented with 2 mg/ml of doxycycline hyclate. Group 3 (posttreatment) mice were given the DietGel without doxycycline until 24 h after infection and were administered 10 mg/kg of doxycycline through oral gavage at […], 24, and 36 h postinfection. Treatment was maintained daily for the duration of the experiment (up to 12 days postinfection). Each C. albicans strain was grown overnight in YPD cultures at 30°C (200 rpm). Cells were washed twice in sterile endotoxin-free phosphate-buffered saline (PBS), and cell density was determined using a hemocytometer. […] Mice were monitored for 12 days, and those showing distress were euthanized. Survival data were plotted on a Kaplan-Meier curve and analyzed by a log rank (Mantel-Cox) test using GraphPad Prism, version 8.00. […]"}, "PTET98-DFR1 strain [5]": {"system": "PTET98-DFR1 strain", "assay": "Passaging of doxycycline-repressible strain in fetal bovine serum", "format": "cell-based", "details": "Candida albicans, read-out: growth inhibition", "experimental": "FIG 2 Dfr1p is essential for Candida albicans growth in vitro. A dfr1Δ/PTETO98-DFR1 strain was sequentially passaged in YPD broth (A), YNB broth (B), or fetal bovine serum (C), each supplemented with 5 μg/ml doxycycline (DOX). Following inoculation at approximately 5 × 10^5 cells/ml, each culture was incubated at 30°C for 24 h, and growth was measured after 24 h as the OD600 value. Relative growth was then expressed as a percentage of the untreated control, i.e., without doxycycline. The values presented here are representative of two independent experiments.\nA combination of dTMP, adenine, histidine, and methionine, each of which requires folate for its biosynthesis, is sufficient to partially restore S. cerevisiae growth following treatment with antifolates ([36]). However, these supplements were not sufficient to restore C. albicans growth in the presence of MTX (Fig. 3). […] Finally, we examined if C. albicans was able to scavenge sufficient folates or folate-dependent metabolites from blood serum to negate the need for de novo biosynthesis. The PTET98-DFR1 strain was passaged for 3 days in 100% fetal bovine serum (FBS) with or without doxycycline. In the first passage, doxycycline inhibited growth by ∼60%, with increasing growth inhibition seen in subsequent subcultures (Fig. 2C). […]"}, "[6]": {"details": "doxycycline treatment initiated 24-h postinfection"}}, "note": "Like-named read-outs stand apart in the source and are kept apart here.", "data": [{"molecule": "Nc1nc2[nH]cc(CCc3ccc(C(=O)N[C@@H](CCC(=O)O)C(=O)O)cc3)c2c(=O)[nH]1", "note": "[Pemetrexed, pemetrexed]", "values": [{"measurement": "C. albicans growth inhibition (in words)", "setting": "[1]", "value": "antifungal activity at pH 5 but not at pH 7"}, {"measurement": "IC50", "setting": "[2]", "value": 1000, "unit": "nM"}, {"measurement": "inhibition of C. albicans DHFR (in words)", "setting": "[2]", "value": "inhibited C. albicans DHFR activity"}]}, {"molecule": "[H]/N=C(\\N/C(=N/[H])Nc1ccc(Cl)cc1)NC(C)C", "note": "[Proguanil, proguanil]", "values": [{"measurement": "MIC", "setting": "[1]", "value": "> 25", "unit": "µM"}, {"measurement": "inhibition of C. albicans DHFR (in words)", "setting": "[2]", "value": "lacked activity"}, {"measurement": "IC50", "setting": "[2]; purified C. albicans DHFR (6×His tag), read-out: IC50", "value": "> 10000", "unit": "nM"}]}, {"molecule": "CCc1nc(N)nc(N)c1-c1ccc(Cl)cc1", "note": "[Pyrimethamine, pyrimethamine]", "values": [{"measurement": "C. albicans growth inhibition (in words)", "setting": "[1]", "value": "failed to inhibit C. albicans growth at either pH"}, {"measurement": "IC50", "setting": "[2]", "value": 100, "unit": "nM"}, {"measurement": "inhibition of C. albicans DHFR (in words)", "setting": "[2]", "value": "inhibited C. albicans DHFR activity"}]}, {"molecule": "COc1cc(Cc2cnc(N)nc2N)cc(OC)c1OC", "note": "[Trimethoprim, trimethoprim]", "values": [{"measurement": "MIC", "setting": "[1]", "value": "> 25", "unit": "µM"}]}, {"molecule": "C[C@@H]1[C@H](O)[C@@H](C)/C=C/C=C/C=C/C=C/C=C/C=C/C=C/[C@H](O[C@@H]2O[C@H](C)[C@@H](O)[C@H](N)[C@@H]2O)C[C@@H]2O[C@](O)(C[C@@H](O)C[C@@H](O)[C@H](O)CC[C@@H](O)C[C@@H](O)CC(=O)O[C@H]1C)C[C@H](O)[C@H]2C(=O)O", "note": "[amphotericin B]", "values": [{"measurement": "favorable response rate", "setting": "[3]; patients with disseminated candidiasis", "value": 62, "unit": "%"}]}, {"molecule": "C[C@H]1c2cccc(O)c2C(=O)C2=C(O)[C@]3(O)C(=O)C(C(N)=O)=C(O)[C@@H](N(C)C)[C@@H]3[C@@H](O)[C@@H]21", "note": "[doxycycline]", "values": [{"measurement": "kidney fungal colonization (CFU) on day 12", "setting": "PTET98-DFR1 strain [4]; doxycycline from 72 h before infection", "value": "5 of the 8 surviving mice had undetectable levels of fungal colonization"}, {"measurement": "survival", "setting": "PTET98-DFR1 strain [4]; doxycycline in gel food from 72 h before infection, monitored 12 days", "value": "all doxycycline-treated mice survived for the duration of the experiment"}, {"measurement": "kidney fungal colonization at end of experiment", "setting": "PTET98-DFR1 strain [4]; [6]", "value": "Half of these mice had undetectable levels of fungal colonization"}, {"measurement": "time to resolution of initial symptoms", "setting": "PTET98-DFR1 strain [4]; [6]", "value": "≤ 6", "unit": "days"}, {"measurement": "survival", "setting": "PTET98-DFR1 strain [4]; doxycycline treatment initiated 24-h postinfection, to day 12 postinfection", "value": "all mice survived the duration of the experiment"}, {"measurement": "inhibition at 5 µg/mL", "setting": "PTET98-DFR1 strain [5]", "value": "~60", "unit": "%"}]}, {"molecule": "OC(Cn1cncn1)(Cn1cncn1)c1ccc(F)cc1F", "note": "[fluconazole]", "values": [{"measurement": "fraction of patients nonresponsive to treatment", "setting": "[3]", "value": "approximately one-third"}]}, {"molecule": "C[C@@H](c1nc(-c2ccc(C#N)cc2)cs1)[C@](O)(Cn1cncn1)c1cc(F)ccc1F", "note": "[isavuconazole]", "values": [{"measurement": "fraction of patients nonresponsive to treatment", "setting": "[3]", "value": "approximately one-third"}]}, {"molecule": "C[C@@H](c1ncncc1F)[C@](O)(Cn1cncn1)c1ccc(F)cc1F", "note": "[voriconazole]", "values": [{"measurement": "fraction of patients nonresponsive to treatment", "setting": "[3]", "value": "approximately one-third"}]}]}
